Measurements: US20160263110A1 (priority 2013, published 2016)
Where “and” joins values, the source holds several entries; their conditions need not be identical. Equal values may be shown once. Entries after “also recorded” stand apart in the source; their conditions may differ. Read-outs that look alike come from different tables or passages of the source.

Assays:
[1] = test system: ALS mouse model; details: list of drugs tested in ALS, Zoccolella et al. 2009; cited from earlier work
[2] = list of drugs tested in ALS, Zoccolella et al. 2009; cited from earlier work
[3] = test system: ALS patients; details: list of drugs tested in ALS, Zoccolella et al. 2009; cited from earlier work
[4] = safety data in non-oncology indications; type: in vivo
[5] = test system: human cord blood mast cells; details: cited from earlier work
[6] = test system: B6SJL-Tg SOD1G93A female mice
[7] = test system: SOD1G93A rats; assay: ALS model in SOD1G93A rats: disease onset and survival
[8] = test system: Non-Tg SOD1G93A mice; assay: negative intervention control in Non-Tg SOD1G93A mice; details: 100 mg/kg/day
[9] = test system: B6SJL-Tg SOD1G93A female mice; details: for Age of onse, Averages / Age of deal, Averages: average of 8 mice; for Age of onse, Averages: control average 101.25; for Age of deal, Averages: control average 135
[10] = test system: B6SJL-Tg SOD1G93A female mice; details: 30 mg/kg/day; from 90 to 120 days

## CC/C(=C(\c1ccccc1)c1ccc(OCCN(C)C)cc1)c1ccccc1 [Tamoxifen]
[1]
  Mouse model: Overall positive
[2]
  Human Safety: Relatively safe
[3]
  Benefits: survival benefit

## Cc1ccc(NC(=O)c2ccc(CN3CCN(C)CC3)cc2)cc1Nc1nc(-c2cccnc2)cs1 [masitinib, 4-(4-methylpiperazin-1-ylmethyl)-N-[4-methyl-3-(4-pyridin-3ylthiazol-2-ylamino)phenyl]benzamide]
[4]; 3 mg/kg/day versus 6 mg/kg/day
  tolerability, difference between doses: no obvious difference
[4]; dosage up to 6 mg/kg/day
  tolerability: well-tolerated
[5]
  FccRI-mediated degranulation of human cord blood mast cells: inhibition
[6]; 30 mg/kg/day
  hind-limb grip strength curve versus Tg Ctrl: significantly improved the grip strength curve
[6]; 100 mg/kg/day, from 90 to 120 days
  hind-limb grip strength versus Tg Ctrl: improved the grip strength during the first stage of the disease
[7]; 40 mg/kg oral
  survival without paralytic symptoms or weight loss (two rats of the group): 7 months
[7]; 40 mg/kg oral once a day Monday to Friday
  early paralysis and death (two rats of the group): died before week 6
[7]; 40 mg/kg oral, 5 times a week, 3 times a week from week 6, male rats from age 120 days, n=6
  survival compared to control (vehicle): prolonged the survival; also recorded: survived longer
[7]; 40 mg/kg oral, after week 6
  disease onset compared to vehicle: develop the disease later
[8]
  results in Non-Tg animals, masitinib versus water: showed similar results to one another
[9]; 30 mg/kg/day
  median survival compared with positive control group: higher
  Age of onse, Averages: 111.375
  Age of deal, Averages: 139.625
[9]; age of symptoms onset, individual mice, 100 mg/kg/day oral gavage Monday-Friday from 90 days old, 100 mg/kg/day
  Age of onse: 109 (2×) and 111 (5×) and 115
[9]; 100 mg/kg/day
  Age of onse, Averages: 111
  Age of deal, Averages: 132.125
[9]; both doses, 30 or 100 mg/kg/day
  symptoms onset versus positive control: significant delay of symptoms onset
[9]; righting reflex as surrogate for survival
  survival versus positive control: trend to improve survival
[10]
  weight loss versus Tg Ctrl: reduced weight loss during the first stage of the disease

## Nc1nc2ccc(OC(F)(F)F)cc2s1 [riluzole, 6-(trifluoromethoxy)benzothiazol-2-amine]
[3]
  Benefits: Positive transient impact
